Assays:
Format in all cases: biochemical
PDE9 = PDE9 (Homo sapiens (Human), UniProt O76083); experiment: PDE9 inhibition assay
Protocol: A PDE9 assay may for example, be performed as follows: The assay is performed in 60 μL samples containing a fixed amount of the relevant PDE enzyme (sufficient to convert 20-25% of the cyclic nucleotide substrate), a buffer (50 mM HEPES7.6; 10 mM MgCl2; 0.02% Tween20), 0.1 mg/ml BSA, 225 pCi of ^3H-labelled cyclic nucleotide substrate, tritium labeled cAMP to a final concentration of 5 nM and varying amounts of inhibitors. Reactions are initiated by addition of the cyclic nucleotide substrate, and reactions are allowed to proceed for one hr at room temperature before being terminated through mixing with 15 μL 8 mg/mL yttrium silicate SPA beads (Amersham). The beads are allowed to settle for one hr in the dark before the plates are counted in a Wallac 1450 Microbeta counter.
In the context of the present invention the assay was performed in 60 μL assay buffer (50 mM HEPES pH 7.6; 10 mM MgCl2; 0.02% Tween20) containing enough PDE9 to convert 20-25% of 10 nM ^3H-cAMP and varying amounts of inhibitors. Following a 1 hr incubation the reactions were terminated by addition of 15 μL 8 mg/mL yttrium silicate SPA beads (Amersham). The beads were allowed to settle for one hr in the dark before the plates were counted in a Wallac 1450 Microbeta counter.

PDE1A = PDE1A (Homo sapiens (Human), UniProt P54750); experiment: PDE1 inhibition assay, PDE1A; conditions: for IC50: 15 nM tritium labelled cAMP
Protocol: (§1) Reactions were initiated by addition of the cyclic nucleotide substrate, and reactions were allowed to proceed for 1 h at room temperature before being terminated through mixing with 20 μL (0.2 mg) yttrium silicate SPA beads (PerkinElmer).

PDE1B = PDE1B (Homo sapiens (Human), UniProt Q01064); experiment: PDE1 inhibition assay, PDE1B; conditions: for IC50: 15 nM tritium labelled cAMP
Protocol: as §1, with “(PerkinElmer). The beads were allowed to settle for 1 h in the dark before the plates were counted in a Wallac 1450 Microbeta counter.” for “(PerkinElmer).”

PDE1C = PDE1C (Homo sapiens (Human), UniProt Q14123); experiment: PDE1 inhibition assay, PDE1C; conditions: for IC50: 15 nM tritium labelled cAMP
Protocol: as §1, with “(PerkinElmer). The beads were allowed to settle for 1 h in the dark before the plates were counted in a Wallac 1450 Microbeta counter.” for “(PerkinElmer).”

Chain of PDE1C (Q14123 whole entry): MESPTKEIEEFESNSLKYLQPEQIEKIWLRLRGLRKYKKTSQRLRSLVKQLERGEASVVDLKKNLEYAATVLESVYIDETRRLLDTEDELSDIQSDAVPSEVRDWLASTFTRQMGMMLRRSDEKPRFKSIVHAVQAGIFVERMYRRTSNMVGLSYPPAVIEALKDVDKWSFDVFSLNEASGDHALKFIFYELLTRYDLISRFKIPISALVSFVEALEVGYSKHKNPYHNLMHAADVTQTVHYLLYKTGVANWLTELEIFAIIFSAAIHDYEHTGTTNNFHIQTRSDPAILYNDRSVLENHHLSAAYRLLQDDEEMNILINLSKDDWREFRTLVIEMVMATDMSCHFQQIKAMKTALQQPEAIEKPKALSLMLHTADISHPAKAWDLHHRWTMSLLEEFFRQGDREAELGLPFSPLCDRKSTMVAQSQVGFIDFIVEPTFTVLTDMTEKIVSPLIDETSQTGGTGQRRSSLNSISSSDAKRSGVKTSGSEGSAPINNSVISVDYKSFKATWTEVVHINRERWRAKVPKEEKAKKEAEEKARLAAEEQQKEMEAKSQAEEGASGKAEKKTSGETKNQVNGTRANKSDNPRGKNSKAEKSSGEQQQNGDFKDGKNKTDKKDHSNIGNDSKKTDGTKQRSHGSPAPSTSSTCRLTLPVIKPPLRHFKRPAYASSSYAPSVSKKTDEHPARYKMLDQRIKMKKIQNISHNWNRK
Chain of PDE1A (P54750 whole entry): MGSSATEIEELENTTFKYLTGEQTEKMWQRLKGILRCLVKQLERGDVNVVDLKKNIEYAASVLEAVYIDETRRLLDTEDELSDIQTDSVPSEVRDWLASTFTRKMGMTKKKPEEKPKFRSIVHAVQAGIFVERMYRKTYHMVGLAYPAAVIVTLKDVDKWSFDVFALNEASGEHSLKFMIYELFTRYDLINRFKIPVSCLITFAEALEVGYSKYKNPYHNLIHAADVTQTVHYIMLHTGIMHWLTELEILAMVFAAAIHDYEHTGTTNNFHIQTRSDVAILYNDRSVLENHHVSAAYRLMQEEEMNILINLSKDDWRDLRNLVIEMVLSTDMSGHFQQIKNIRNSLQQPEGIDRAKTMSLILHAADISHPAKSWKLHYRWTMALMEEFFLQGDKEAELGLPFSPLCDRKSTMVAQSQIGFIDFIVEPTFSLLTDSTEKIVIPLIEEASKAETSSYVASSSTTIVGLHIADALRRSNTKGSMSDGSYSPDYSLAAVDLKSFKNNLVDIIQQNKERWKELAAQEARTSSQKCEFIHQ
Chain of PDE9 (O76083 whole entry): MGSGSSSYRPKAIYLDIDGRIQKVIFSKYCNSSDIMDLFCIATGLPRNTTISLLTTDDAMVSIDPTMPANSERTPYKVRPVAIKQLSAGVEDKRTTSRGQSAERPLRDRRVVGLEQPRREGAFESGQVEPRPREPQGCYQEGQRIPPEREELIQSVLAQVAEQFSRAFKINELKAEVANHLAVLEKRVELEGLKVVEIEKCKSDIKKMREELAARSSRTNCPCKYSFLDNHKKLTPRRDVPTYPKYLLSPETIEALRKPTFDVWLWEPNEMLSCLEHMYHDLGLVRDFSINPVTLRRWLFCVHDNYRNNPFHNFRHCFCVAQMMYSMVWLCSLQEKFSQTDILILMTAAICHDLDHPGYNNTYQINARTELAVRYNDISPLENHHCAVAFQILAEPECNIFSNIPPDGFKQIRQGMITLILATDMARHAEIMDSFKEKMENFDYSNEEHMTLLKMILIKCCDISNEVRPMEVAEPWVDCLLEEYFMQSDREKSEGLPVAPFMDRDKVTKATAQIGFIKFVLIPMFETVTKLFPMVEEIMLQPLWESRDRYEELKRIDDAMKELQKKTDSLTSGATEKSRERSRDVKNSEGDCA
Chain of PDE1B (Q01064 whole entry): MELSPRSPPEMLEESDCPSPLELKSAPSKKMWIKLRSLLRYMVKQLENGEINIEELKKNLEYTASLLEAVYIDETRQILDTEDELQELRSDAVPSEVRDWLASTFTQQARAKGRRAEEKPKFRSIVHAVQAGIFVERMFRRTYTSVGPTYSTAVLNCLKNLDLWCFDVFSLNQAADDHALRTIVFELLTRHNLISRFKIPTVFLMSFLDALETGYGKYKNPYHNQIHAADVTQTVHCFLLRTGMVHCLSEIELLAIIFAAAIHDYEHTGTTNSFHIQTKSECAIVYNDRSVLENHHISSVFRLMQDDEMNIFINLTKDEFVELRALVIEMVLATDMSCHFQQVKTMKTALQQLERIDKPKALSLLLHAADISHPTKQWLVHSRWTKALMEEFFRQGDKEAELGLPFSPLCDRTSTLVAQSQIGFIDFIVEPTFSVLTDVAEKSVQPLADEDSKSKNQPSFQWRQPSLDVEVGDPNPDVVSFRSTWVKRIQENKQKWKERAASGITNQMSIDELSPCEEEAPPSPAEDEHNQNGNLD

inhibition at 10 µM (PDE9) | IC50 (PDE1A) | IC50 (PDE1B) | % inhibition of PDE9 at 10 microM (PDE9) | IC50 (PDE1C) | SMILES | other results
10% |  |  |  |  | COc1ccc(Cn2c(C)cn3c(C(C)(C)F)ncc3c2=O)cc1 [Example 87, 3-(2-fluoropropan-2-yl)-7-(4-methoxybenzyl)-6-methylimidazo[1,5-a]pyrazin-8(7H)-one] | 
 | 282 nM | 107 nM | 11% |  | Cc1cn2c([C@H]3CCO[C@@H]3C)ncc2c(=O)n1Cc1cccc(F)c1 (single isomer, unassigned; isomer 2) [36, isomer 2] | 
1% |  |  |  | 230 nM | O=c1c2cnc(C3CC3)n2ccn1CC1CCCC1 [Example 7, 7-(Cyclopentylmethyl)-3-cyclopropylimidazo[1,5-a]pyrazin-8(7H)-one] | inhibition at 2 µM (PDE1A; read-out: PDE1A, % inhibition (at 2 μM)): 60%; inhibition at 2 µM (PDE1B; read-out: PDE1B, % inhibition (at 2 μM)): 85%
1% |  | 128 nM |  | 303 nM | COc1ccc(Cn2c(C)cn3c(C4COC(C)C4)ncc3c2=O)cc1 (stereo not drawn) [Example 89, 7-(4-methoxybenzyl)-6-methyl-3-(5-methyltetrahydrofuran-3-yl)imidazo[1,5-a]pyrazin-8(7H)-one] | inhibition at 10 µM (PDE1A; read-out: PDE1A, % inhibition (at 10 μM)): 65%
-5% | 45 nM | 26 nM |  | 84 nM | COc1ccc(Cn2c(C)cn3c(C4CCOCC4)ncc3c2=O)cn1 [Example 57, 7-((6-methoxypyridin-3-yl)methyl)-6-methyl-3-(tetrahydro-2H-pyran-4-yl)imidazo[1,5-a]pyrazin-8(7H)-one] | 
1% | 199 nM | 36 nM |  | 46 nM | COc1ccc(Cn2c(C)cn3c(C4CCOCC4)ncc3c2=O)cc1Cl [Example 51, 7-(3-chloro-4-methoxybenzyl)-6-methyl-3-(tetrahydro-2H-pyran-4-yl)imidazo[1,5-a]pyrazin-8(7H)-one] | 
-19% | 5 nM | 2 nM |  | 3 nM | COc1ccc(Cn2c(C)cn3c(C4CCc5ccc(Cl)cc54)ncc3c2=O)cc1 (stereo not drawn) [Example 74, 3-(6-chloro-2,3-dihydro-1H-inden-1-yl)-7-(4-methoxybenzyl)-6-methylimidazo[1,5-a]pyrazin-8(7H)-one] | 
0% | 331 nM | 359 nM |  | 93 nM | Cc1cn2c(C3CC3(F)F)ncc2c(=O)n1Cc1cccc(F)c1 (stereo not drawn) [Example 34, 3-(2,2-difluorocyclopropyl)-7-(3-fluorobenzyl)-6-methylimidazo[1,5-a]pyrazin-8(7H)-one] | 
12% | 30 nM | 21 nM |  | 16 nM | O=c1c2cnc(C3CCOCC3)n2ccn1CC1CCCCCC1 [Example 12, 7-(Cycloheptylmethyl)-3-(tetrahydro-2H-pyran-4-yl)imidazo[1,5-a]pyrazin-8(7H)-one] | 
-14% | 51 nM | 14 nM |  | 11 nM | O=c1c2cnc(C3CCOCC3)n2cc(Cc2ccccc2)n1Cc1cccc(F)c1 [Example 2, 6-Benzyl-7-(3-fluorobenzyl)-3-(tetrahydro-2H-pyran-4-yl)imidazo[1,5-a]pyrazin-8(7H)-one] | 
 | 257 nM | 122 nM | −1% | 22 nM | Cc1cn2c([C@]3(C)CCOC3)ncc2c(=O)n1Cc1cccc(F)c1 (single isomer, unassigned; isomer 1) [32, isomer 1] | 
12% | 50 nM | 16 nM |  | 38 nM | Cc1cn2c(C3CCOCC3)ncc2c(=O)n1Cc1ccc2c(c1)OCO2 [Example 50, 7-(benzo[d][1,3]dioxol-5-ylmethyl)-6-methyl-3-(tetrahydro-2H-pyran-4-yl)imidazo[1,5-a]pyrazin-8(7H)-one] | 
 |  | 208 nM | 1% |  | COc1ccc(Cn2c(C)cn3c([C@H]4CCO[C@H]4C)ncc3c2=O)cc1 (single isomer, unassigned; isomer 4) [55, isomer 4] | 
 |  |  | 2% | 153 nM | Cc1cn2c(C3C[C@H]3F)ncc2c(=O)n1Cc1cccc(F)c1 (single isomer, unassigned; isomer 2) [38, isomer 2] | 
 | 13 nM | 7 nM |  | 20 nM | COc1ccc(Cn2c(C)cn3c(C(C)C)ncc3c2=O)cc1 [Example 77, 3-isopropyl-7-(4-methoxybenzyl)-6-methylimidazo[1,5-a]pyrazin-8(7H)-one] | 
10% |  |  |  |  | COc1cc(Cn2c(C)cn3c(C4CCOCC4)ncc3c2=O)ccc1Cl [Example 48, 7-(4-chloro-3-methoxybenzyl)-6-methyl-3-(tetrahydro-2H-pyran-4-yl)imidazo[1,5-a]pyrazin-8(7H)-one] | inhibition at 1 µM (PDE1C; read-out: PDE1C, % inhibition (at 1 μM)): 34%; inhibition at 1 µM (PDE1B; read-out: PDE1B, % inhibition (at 1 μM)): 54%
 | 77 nM | 21 nM | −10% |  | Cc1cn2c([C@@H]3CCO[C@H]3C)ncc2c(=O)n1Cc1cccc(F)c1 (single isomer, unassigned; isomer 3) [36, isomer 3] | 
 |  | 10 nM | 18% |  | COc1ccc(Cn2c(C)cn3c([C@@H]4CCO[C@@H]4C)ncc3c2=O)cc1 (single isomer, unassigned; isomer 1) [55, isomer 1] | 
 |  |  | −2% | 345 nM | Cc1cn2c(C3C[C@@H]3F)ncc2c(=O)n1Cc1cccc(F)c1 (single isomer, unassigned; isomer 1) [37, isomer 1] | 
 |  | 64 nM | −13% |  | COc1ccc(Cn2c(C)cn3c([C@@H]4CCO[C@H]4C)ncc3c2=O)cc1 (single isomer, unassigned; isomer 2) [55, isomer 2] | 
 |  | 3 nM |  |  | COc1ccc(Cn2c(C)cn3c([C@@H]4CCO[C@H]4C)ncc3c2=O)cc1 (single isomer, unassigned; isomer 3) [55, isomer 3] | 
 | 152 nM | 59 nM | 3% |  | Cc1cn2c([C@@H]3CCO[C@@H]3C)ncc2c(=O)n1Cc1cccc(F)c1 (single isomer, unassigned; isomer 1) [36, isomer 1] | 
 | 48 nM | 38 nM |  | 51 nM | COc1ccc(Cn2c(C)cn3c(N4CCOC[C@@H]4C)ncc3c2=O)cc1 [Example 96, (S)-7-(4-methoxybenzyl)-6-methyl-3-(3-methylmorpholino)imidazo[1,5-a]pyrazin-8(7H)-one] | 
 |  |  | −1% |  | Cc1cn2c(C3C[C@H]3F)ncc2c(=O)n1Cc1cccc(F)c1 (single isomer, unassigned; isomer 1) [38, isomer 1] | 
 |  |  | 13% | 55 nM | Cc1cn2c(C3C[C@@H]3F)ncc2c(=O)n1Cc1cccc(F)c1 (single isomer, unassigned; isomer 2) [37, isomer 2] | 

SMILES | inhibition at 10 µM (PDE9) | IC50 (PDE1A) | IC50 (PDE1B) | % inhibition of PDE9 at 10 microM (PDE9) | IC50 (PDE1C) | other results
COc1ccc(Cn2c(C)cn3c(NC4CCOC4)ncc3c2=O)cc1 (stereo not drawn) [Example 94, 7-(4-methoxybenzyl)-6-methyl-3-((tetrahydrofuran-3-yl)amino)imidazo[1,5-a]pyrazin-8(7H)-one] | -5% | 2520 nM |  |  |  | 
COc1ccc(Cn2c(C)cn3c(C4(C)CCN(C)CC4)ncc3c2=O)cc1 [Example 73, 3-(1,4-dimethylpiperidin-4-yl)-7-(4-methoxybenzyl)-6-methylimidazo[1,5-a]pyrazin-8(7H)-one] |  | 1920 nM | 1450 nM |  | 2450 nM | 

Source: patent publication US10858362B2, “Imidazopyrazinones as PDE1 inhibitors” (H. Lundbeck A/S, priority 2015, dated 2020)
